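48-hour exposure; five concentrations; linearly interpolated endpoints. GI50 marks 50% less growth. At the TGI there is no net growth.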 Bounds are passed on as bounds.

Experimental findings from PubChem BioAssay (NCI) are described below.

Common to all, as to experiment: NCI anticancer screen, dose series, 48 h
For assay [1], the system named is BT-549 breast.
For assay [2], the system named is 786-0 renal.
Assay [3] relates to DMS 273 small cell lung.
For assay [4], the system named is T-47D breast.
For assay [5], the system named is HS 578T breast.
Assay [6] deals with LXFL 529 NSCLC.
Assay [7] concerns SNB-78 CNS.
The subject of assay [8] is SNB-75 CNS.
For assay [9], the system named is MCF7 breast.
In assay [10] the test system is SR leukemia.
Assay [11] deals with MDA-N.
Assay [12] concerns PC-3 prostate.

For `CC(C)(C)C1CCC2(CC1)CCN(CCCN1CCOCC1)CC2`, the TGI in [1] is more than 100 µM; in [2] it was 51 µM; in [3], 38.3 µM; in assay [4] it was more than 100 µM; in assay [5], more than 100 µM; in assay [6], 21.5 µM. Also, the TGI in assay [7] is 91.9 µM; in assay [8] it was more than 52.4 µM; in assay [9], more than 100 µM; in assay [10], more than 100 µM; in assay [11] it was 89.9 µM; in assay [12] it was more than 100 µM.

Regarding `O=C1c2ccccc2C(=O)c2c(NCCNC(=O)C3CCCN3)ccc(NCCNC(=O)C3CCCN3)c21` (stereo not given), the TGI was more than 100 µM in [1]; 2.09 µM in assay [2]; more than 100 µM in assay [4]; more than 100 µM in assay [5]; more than 100 µM in assay [8]; more than 100 µM in assay [9]. Further, the TGI in assay [10] was 66.8 µM; in assay [11] it was more than 100 µM; in assay [12], more than 100 µM.

For `COc1cnc2c(c1)C(=O)c1c-2n(CCCN2CCNCC2)c(=O)c2cc(Cl)ccc12`, the GI50 in [4] was 8.98 µM; in assay [8], 0.291 µM. The TGI in assay [4] was 50.3 µM; in assay [8], 1.69 µM.

Take `Cn1cnc([N+](=O)[O-])c1SCC(=O)O`: the TGI in [1], in [2], in [4], in assay [5], in [8] and in assay [9] was more than 100 µM in each case. Moreover, the TGI in [10], in assay [11] and in assay [12] was more than 100 µM each time.

Turning to `C[C@H]1CCC/C=C/[C@@H]2C[C@H](O)C[C@H]2[C@H](O)[C@@H](S(=O)CCN)CC(=O)O1` (stereo not given in full), the GI50 in [1] was 0.0377 µM; in [4] it was 0.116 µM; in [5] it was 0.207 µM; in assay [8] it was less than 0.0231 µM; in assay [9], 0.0316 µM; in assay [11], 0.0505 µM. Besides, in [12], the GI50 is 0.0442 µM. Further, the TGI was more than 100 µM in assay [1]; 0.544 µM in [4]; more than 100 µM in assay [5]; more than 25.1 µM in [8]; 5.5 µM in assay [11].

Consider `C[n+]1cccc(/C=C/c2ccc3cccc(O)c3n2)c1`, for which the TGI in [1], in assay [2], in assay [4], in assay [5], in assay [8] and in assay [9] was more than 100 µM throughout. For the same compound, the TGI in assay [10], in assay [11] and in assay [12] was more than 100 µM in each case.

As to `O=C(c1cc(Br)ccc1O)c1cc(Br)ccc1O`, the TGI in [1] is 33.9 µM; in [2], 30.6 µM; in assay [4], 29.2 µM; in [5], more than 100 µM; in assay [8] it was 29.9 µM; in assay [9], 31.3 µM. Also, the TGI in assay [11] was found to be 29.5 µM; in assay [12], 30.8 µM.

On to `CCOC(=O)N1c2ccccc2S(=O)(=O)c2ccccc21`, for which the TGI in assay [1], in [2], in [4], in assay [5], in assay [9] and in assay [11] was more than 100 µM each time. The TGI in [12] is more than 100 µM.

For the compound `COc1ccc(-n2c3c(c4cc(O)ccc42)C(=O)c2ccccc2C3=O)cc1`, the TGI was 31.5 µM in [1]; 11.5 µM in assay [2]; more than 100 µM in assay [4]; more than 100 µM in [5]; more than 100 µM in [9]; 56.9 µM in [10]. The TGI in [11] was more than 100 µM; in assay [12] it was 87.3 µM.

Regarding `Oc1cc(O)cc(/C=C/c2ccc(O)c(O)c2)c1`, the TGI in assay [3] is 38.9 µM; in assay [7] it was 76.5 µM; in [8], 51.7 µM; in assay [9], more than 56.1 µM.

Turning to `Cc1cc(=O)[nH]c(NN2C(Cl)C(=O)C2c2cccc([N+](=O)[O-])c2)n1` (stereo not given), the TGI in assay [3] was 31.2 µM; in [6], 29.9 µM; in assay [7] it was more than 100 µM; in assay [8], more than 100 µM; in assay [10], 57.8 µM.

Consider `CN(C)c1ccc(C2CC(=O)C(C#N)=C(c3ccccc3)NN2C)cc1` (stereo not given), for which the TGI was more than 100 µM in assay [6], more than 100 µM in assay [7], 7.59 µM in assay [8] and more than 100 µM in assay [10].

On to `CCOC(=O)C1=C(C)N(C)C(=S)NC1c1cccc(O)c1` (stereo not given), for which the TGI is 87.9 µM in assay [1]; more than 100 µM in assay [2]; more than 100 µM in [4]; more than 100 µM in assay [5]; more than 100 µM in assay [8]; more than 100 µM in assay [9]. Further, the TGI in [10] was 57.3 µM; in assay [11], 33 µM; in [12], more than 100 µM.

In the case of `CN(C)[C@@H]1C(=O)C(C(=O)NCNCCCC(=O)O)=C(O)[C@@]2(O)C(=O)C3=C(O)c4c(O)cccc4[C@@](C)(O)[C@H]3C[C@@H]12`, the TGI in assay [2], in assay [3], in [6], in assay [7] and in [10] was more than 100 µM throughout.
